Consider five compounds from ChEMBL document CHEMBL1153375, “Synthesis and antibacterial activities of N-glycosylated derivatives of tyrocidine A, a macrocyclic peptide antibiotic” (2009).

The structures appear in SMILES notation. ≈ marks a conversion by molar mass, not a printed value. Calls of active or inactive are those of the source.

One may read the MIC as the smallest concentration in the dilution series that meets the test's criterion for growth inhibition.

The subject of assay [1] is Bacillus subtilis. As to the kind of experiment: Antibacterial activity against Bacillus subtilis CMCC-B 63501 up to 500 ug/ml by twofold serial dilution method. In kind it is functional, organism-based.
For assay [2], the system named is Bacillus subtilis. As to the kind of experiment: Antibacterial activity against Bacillus subtilis CMCC-B 63501 by twofold serial dilution method. In kind it is functional.
Where [3] appears, read: Bacillus subtilis, read-out: MIC.

On to `CC(=O)N[C@@H]1[C@@H](O)[C@H](O)[C@@H](CO)O[C@H]1NC(=O)C[C@@H]1NC(=O)C(Cc2ccccc2)NC(=O)[C@H](Cc2ccccc2)NC(=O)[C@@H]2CCCN2C(=O)C(Cc2ccccc2)NC(=O)[C@H](CC(C)C)NC(=O)[C@H](CCCN)NC(=O)[C@H](C(C)C)NC(=O)[C@H](Cc2ccc(O)cc2)NC(=O)[C@H](CCC(N)=O)NC1=O` (single isomer, unassigned), for which, in assay [1], the result was inactive.

`CC(C)C[C@@H]1NC(=O)[C@H](CCCN)NC(=O)[C@H](C(C)C)NC(=O)[C@H](Cc2ccc(O)cc2)NC(=O)[C@H](CCC(N)=O)NC(=O)[C@H](CC(N)=O)NC(=O)[C@@H](Cc2ccccc2)NC(=O)[C@H](Cc2ccccc2)NC(=O)[C@@H]2CCCN2C(=O)[C@@H](Cc2ccccc2)NC1=O` (stereo in doubt) [TYROCIDINE A] showed an MIC in assay [2] of 20 µg/mL (≈ 15.7 µM).

With `CC(C)C[C@@H]1NC(=O)[C@H](CCCN)NC(=O)[C@H](C(C)C)NC(=O)[C@H](Cc2ccc(O)cc2)NC(=O)[C@H](CCC(N)=O)NC(=O)[C@H](CC(=O)NCCO[C@@H]2O[C@H](CO)[C@@H](O[C@@H]3O[C@H](CO)C(O)[C@H](O)[C@H]3O)[C@H](O)[C@H]2O)NC(=O)C(Cc2ccccc2)NC(=O)[C@H](Cc2ccccc2)NC(=O)[C@@H]2CCCN2C(=O)C(Cc2ccccc2)NC1=O` (single isomer, unassigned), the minimal inhibitory concentration (MIC) in assay [2] (setting [3]) amounted to 62 µg/mL (≈ 37.8 µM).

For `CC(C)C[C@@H]1NC(=O)[C@H](CCCN)NC(=O)[C@H](C(C)C)NC(=O)[C@H](Cc2ccc(O)cc2)NC(=O)[C@H](CCC(N)=O)NC(=O)[C@H](CC(N)=O)NC(=O)[C@@H](Cc2ccccc2)NC(=O)[C@H](Cc2ccccc2)NC(=O)[C@@H]2CCCN2C(=O)[C@@H](Cc2ccccc2)NC1=O` (stereo in doubt; 1) [TYROCIDINE A], the MIC in assay [2] (setting [3]) worked out at 31 µg/mL (≈ 24.4 µM).

In the case of `CC(=O)N[C@@H]1[C@@H](O)[C@H](O[C@@H]2O[C@H](CO)[C@@H](O)[C@H](O)[C@H]2NC(C)=O)[C@@H](CO)O[C@H]1NC(=O)C[C@@H]1NC(=O)C(Cc2ccccc2)NC(=O)[C@H](Cc2ccccc2)NC(=O)[C@@H]2CCCN2C(=O)C(Cc2ccccc2)NC(=O)[C@H](CC(C)C)NC(=O)[C@H](CCCN)NC(=O)[C@H](C(C)C)NC(=O)[C@H](Cc2ccc(O)cc2)NC(=O)[C@H](CCC(N)=O)NC1=O` (single isomer, unassigned), in assay [1], the outcome was inactive.
